US20060040253A1, “Use of Smad3 inhibitor in the treatment of fibrosis dependent on epithelial to mesenchymal transition as in the eye and kidney” (priority 2003, published 2006)

What was measured:
[1] = system: α-TN4; experiment: Snail up-regulation in α-TN4 lens epithelial cell line after TGF-β addition; type: cell-based, mouse; conditions: prior to up-regulation of αSMA
[2] = system: ARPE-19 cells; experiment: Production of PDGF, TGF-β1 and collagen type I in ARPE-19 cells treated with TGF-β2; type: cell-based, human; conditions: for amount of type I collagen in culture medium and cell lysate (ELISA): 48 hr
Method: Expression of PDGF-BB in ARPE-19 cells was assessed by western blot of cell lysates using PDGF-B (H-55, Santa Cruz Biotechnology, Inc.). Enzyme-linked immunosorbent assays (ELISAs) for PDGF-BB, PDGF-AB and TGF-β1 (R & D Systems, Inc., Minneapolis, Minn.) were used to determine the concentration of each peptide in the culture medium. ARPE-19 cells were grown in 6-well plates to near confluence and then cultured in 500 μl of serum-free DMEM/F-12 supplemented with antibiotics in the presence or absence of human recombinant TGF-β2 (1.0 ng/ml R & D Systems, Inc., Minneapolis, Minn.) for 48 or 96 hrs. Nine wells were prepared for each culture condition. Medium was processed for ELISAs for determination of the concentration of PDGF-BB and -AB according to the manufacturers' protocols. Medium (48 hr) was also processed for the determination of TGF-β1 by an ELISA kit (R & D Systems, Minneapolis, Minn.). Type I collagen was quantified in medium and sonicated cell lysates (48 hr) and processed for an ELISA system for type I collagen C-terminal peptide (PIP ELISA kit, Takara, Tokyo, Japan). Confluent cells grown on a chamber slides (Nunc) were immunostained for collagen type I (1:100 dilution in PBS, Southern Biotechnology).

[3] = system: ARPE-19 cells; experiment: ARPE-19 cell migration, in vitro closure of a defect in a monolayer cell sheet; type: cell-based, human; conditions: TGF-β2 1.0 ng/ml; 24 hrs for the untreated culture
Excerpt: (§1) The ARPE-19 human RPE cell line (ATCC # CRL-2302) (Dunn, K. C. et al. 1996 Exp Eye Res 62:155-169) was used to assess effects of […] TGF-β2 on expression of αSMA and Smad3 activation as previously described (EXAMPLE 1). Effect of addition of TGF-β2 on ARPE-19 cell migration was examined by using a model of in vitro closure of a monolayer cell sheet as previously reported (Saika, S. et al. 1995 Graefes Arch Clin Exp Ophthalmol 233:347-353).

[4] = system: ARPE-19 cells; experiment: Proliferation of ARPE-19 cells (MTT assay); type: cell-based, human; conditions: sparse cultures, up to 120 hr; PDGF-BB 5 ng/ml, TGF-β2 1 ng/ml
Method: Effects of adding TGF-β2, PDGF-BB, and/or anti-PDGF-B-neutralizing antibody on proliferation of ARPE-19 cells were assessed using the MTT assay (TACS MTT Cell Proliferation Assay Kit, Trevigen, Gaithersburg, Md., USA) according to manufacturer's instruction. ARPE 19 cells suspended in DMEM/F-12 supplemented with 15% fetal calf serum (2×10^4/100 μl/well) were seeded in 96-well culture plates (8 wells for each condition). After 12 hrs cells were changed to 100 μl serum-free culture medium and cultured for an additional 120 hr supplemented with PDGF-BB (5.0 ng/ml) or TGF-β2 (1.0 ng/ml), with either neutralizing anti-PDGF-B antibody (20 μg/ml) or non-immune IgG (20 μg/ml) as control. At the end of each culture interval, MTT reagent (10 μl) was added to each well and the incubation continued for an additional 5 hr at 37° C. Optical density at 570 nm was measured 4 hr after adding the lysis solution contained in the kit.

[5] = system: ARPE-19 cells; experiment: EMT and Smad phosphorylation in ARPE-19 cells; type: cell-based, human
Excerpt: as §1

[6] = system: lens epithelium; experiment: Organ-culture of mouse lenses with TGF-β2; type: cell-based; conditions: TGF-β2 10 ng/ml, not KO
Method: The crystalline lens was carefully removed from enucleated eyes of adult Smad3-KO or WT mice and processed for organ-culture as previously described (Saika, S. et al. 2003 Invest Ophthalmol Vis Sci 44: 2094-2102). Three lenses were used in each culture condition. The lens was incubated in DMEM supplemented with antibiotics in the presence and absence of porcine TGF-β2 (10 ng/ml) with a medium change every 2 days. After 5 or 10 days of culture, the tissue was fixed in 2.0% paraformaldehyde as described above. Paraffin sections were processed for histology and immunohistochemistry.
Sections (5 μm) were deparaffinized and stained with hematoxylin and eosin (HE) alone or with polyclonal antibodies against collagen types I and V (both 1:100 dilution in PBS, Southern Biotechnology, Birmingham, Ala.), rabbit polyclonal anti-lumican antibody (10 μg/ml)(Saika, S. et al. 2000 J Biol Chem 275: 2607-2612), or with a mouse monoclonal anti-αSMA antibody (1:100 dilution in PBS, NeoMarker, Fremont, Calif., USA), rabbit polyclonal antibodies against the TGF-β isoforms as previously reported (Flanders, K. C. et al. 1991 Development 113: 183-191), or with non-immune IgG (control). After binding of labeled secondary antibody and the color reaction with 3,3′-diaminobenzidine, sections were counterstained with methyl green and mounted in balsam. […]

[7] = system: primary porcine RPE cells; experiment: EMT in primary cultures of porcine RPE cells (αSMA immunostaining); type: cell-based; conditions: TGF-β2 10 ng/ml, 48 hr; not in its absence
Method: Cultures of primary porcine RPE cells were prepared by aspirating RPE layers from a hemi-sectioned pig eye after removing the retina by using a micropipette, and putting the aspirate in a 30-mm diameter collagen-coated plastic culture dish to allow the epithelial cells to outgrow. After reaching confluence, the cells were trypsinized, suspended in Dulbecco's modified Eagle's essential medium (DMEM) supplemented with 10% fetal calf serum, and seeded on fibronectin-coated chamber slides (Falcon, Becton Dickinson, Lincoln Park, N.J.) in the presence and absence of 10 ng/ml of porcine TGF-β2 (R & D systems Inc., Minneapolis, Minn.). At 24 hr culture intervals the cells were fixed and immunostained for αSMA.

[8] = system: RPE cells; experiment: Wounding of the RPE cell layer in organ-cultured mouse globes; type: cell-based; conditions: TGF-β2 10 ng/ml, WT posterior segments; KO negative
Method: Both eyes were enucleated immediately after being sacrificed as described above. Anterior eye segment structures (cornea and lens) and retina were carefully removed from the globe. After the RPE cell layer had been wounded by scraping using a silicone needle, the tissue was cultured in Eagle's medium supplemented with 10% fetal calf serum in the presence or absence of human recombinant TGF-β2 at 10 ng/ml for 48 hr. The tissue was fixed and embedded in paraffin as previously described (Example 1).
Sections (5 μm) were deparaffinized and stained with hematoxylin and eosin (HE) alone or with polyclonal antibodies against collagen type VI (1:100 dilution in PBS, Southern Biotechnology, Birmingham, Ala.), rabbit polyclonal anti-lumican antibody (10 μg/ml (Saika, S. et al. 2000 J Biol Chem 275:2607-2612)), mouse monoclonal anti-αSMA antibody (1:100 dilution in PBS, NeoMarker, Fremont, Calif., USA), goat polyclonal anti-PDGF-B antibody (1:200 dilution in PBS, Santa Cruz), mouse monoclonal anti-proliferating cell nuclear antigen (PCNA) antibody (1:100 dilution in PBS, Santa Cruz) or with non-immune IgGs (control). After binding of FITC-labeled secondary antibodies (1:100 dilution in PBS, Cappel ICN, Aurora, Ohio, USA), the specimens were observed under fluorescent microscopy followed by mounted with VectaShield with nuclear DAPI staining. […]

[9] = system: renal tubular epithelial cells; experiment: TGF-β1-induced EMT and autoinduction in primary culture of renal tubular epithelial cells; type: cell-based, mouse; conditions: wild-type cells, TGF-β1 10 ng/ml
Method: Minced kidneys were washed with 3 changes of cold PBS containing 1 mM EDTA and digested in 0.25% trypsin solution (Gibco BRL, Grand Island, N.Y.) in a shaking incubator at 37° C. for 2 h. Trypsin was neutralized with growth medium (DMEM/10% FBS containing 100 unit/ml penicillin and 0.1 mg/ml streptomycin). The suspension was triturated by pipetting and passed through a 100 μm cell strainer (Becton Dickinson Labware, Franklin Lakes, N.J.). The filtrate consisting mostly of dispersed renal tubules was plated onto culture dishes (Nalge Nunc International, Naperville, Ill.) and 2-well chamber slides (Nunc Lab-Tek II-CC2, Nalge Nunc International), and incubated at 37° C. in a CO2 incubator with medium changes every 2 days. Experiments were carried out in serum-free DMEM. EMT was induced by an addition of 10 ng/ml TGF-β1 (R&D Systems, Minneapolis, Minn.). Mouse monoclonal anti-TGF-β neutralizing antibody (clone: 1D11, R & D Systems) was used at a concentration of 20 μg/ml with mouse IgG (Sigma, St Louis, Mo.) as a control.
Histological sections were prepared from tissues fixed in 4% paraformaldehyde in 0.1 M phosphate buffer, pH 7.4, and embedded in paraffin. Cryosections and bottom sheets of BioFlex were fixed in cold acetone and subjected to indirect immunofluorescence with anti-E-cadherin (clone: DECMA-1, Sigma, St Louis, Mo.), anti-α-SMA (clone: 1A4, NeoMarkers, Fremont, Calif.), anti-mouse type I collagen (Southern Biotechnology, Birmingham, Ala.) and anti-mouse F4/80 antibodies (clone: A3-1, BMA, Augst, Switzerland). As second antibodies, FITC-anti-rat IgG (Sigma), TRITC-anti-mouse IgG (Sigma) or Cy3-anti-goat IgG (Sigma) were used.
Cells and tissues were lysed in buffer containing 1% Nonidet P-40, 25 mM Tris-HCl, pH 7.5, 150 mM NaCl, 10 mM EDTA and 1:50 dilution of a protease inhibitor cocktail (P-2714, Sigma). Proteins were separated by SDS-PAGE, transferred to nitrocellulose membranes, and blocked in 5% skim milk in PBS. After incubation with primary antibodies against E-cadherin (clone: 36, Transduction Laboratories, Lexington, Ky.), α-SMA (clone: 1A4) and actin antibodies (Sc-1616, Santa Cruz Biochemicals, Santa Cruz, Calif.), blots were reacted with POD-conjugated goat anti-mouse IgG secondary antibody (Sigma) and developed with ECL (Amersham Biosciences, Buckingshire, UK).
Total RNA was extracted with TRIzol reagent (Invitrogen, Carlsbad, Calif.). RNA (20 μg/lane), separated in 1% agarose-formaldehyde gels and transferred to Hybond-HX nylon membranes (Amersham). Membranes were hybridized with cDNA probes for mouse Snail and TGF-β1 mRNA labeled with [P^32] dCTP by random primed DNA synthesis using the same primers as above (Rediprime II, Amersham Pharmacia Inc., Piscataway, N.J.). Filters were exposed to X-ray film at −80° C. for 2 to 3 d. […]

TGF-β
earliest time of snail up-regulation after TGF-β addition [1]: 30 min

TGF-β2: exogenous TGF-β2 growth factor; porcine or human recombinant depending on experiment
amount of type I collagen in culture medium and cell lysate (ELISA) [2]: increase
PDGF-AB production (ELISA) ([2]; TGF-β2 1.0 ng/ml): significantly increased
concentration of PDGF-BB in culture medium (ELISA) ([2]; TGF-β2 1.0 ng/ml, 96 hrs): approximately 500 pg/ml
PDGF-B protein expression (Western blotting) ([2]; TGF-β2 1.0 ng/ml, beginning about 48-72 hrs after addition): time-dependent up-regulation
PDGF-BB protein secreted into the culture medium, increase above control cultures (ELISA) ([2]; TGF-β2 1.0 ng/ml, confluent cultures): over 2 fold
expression of TGF-β1 in medium (ELISA) ([2]; exogenous TGF-β2, 48 hr): significant increase
time to closure of the defect in wounded monolayer [3]: ≤ 12 h
growth of the cells (MTT assay) [4]: inhibited
αSMA expression ([5]; TGF-β2 for 72 hr): clusters of αSMA positive cells
time of highest level of nuclear translocation of Smad3 after addition of TGF-β2 ([5]; immunofluorescence, no longer detectable at 24 hr): 1 h
time to phosphorylation of Smads2/3 after TGF-β2 exposure (Western blotting) ([5]; remained activated up to 48 hrs): ≤ 30 min
lens epithelium morphology and EMT markers (lumican, αSMA, collagen type I) ([6]; 10 days, WT lenses): multilayer of cells of a fibroblastic morphology
expression of lumican ([6]; day 5, WT lenses): up-regulated expression of lumican
αSMA expression [7]: express αSMA
αSMA expression in wounded pigment epithelium [8]: expresses αSMA faintly at 24 hr and then clearly at 48 hr

TGF-β1: exogenous TGF-β1 (R&D Systems), growth factor used to induce EMT
Snail mRNA (Northern blot) ([9]; 8 h, not in Smad3-null cells): de novo expression of Snail mRNA
TGF-β1 mRNA expression (autoinduction) ([9]; 24 h, vs non-treated wild-type, not in Smad3-null cells): enhanced expression of TGF-β1 mRNA
cell morphology (phase-contrast microscopy) ([9]; 24 h, Smad3-null cells retained epithelial monolayer): spindle-shaped, fibroblastic appearance
E-cadherin and α-SMA by dual immunofluorescence ([9]; 24 h, not seen in Smad3-null cells): Marked reduction of E-cadherin and de novo expression of α-SMA
amount of type I collagen in culture medium and cell lysate (ELISA) [2]: increase

B1: PDGF-BB: exogenous PDGF-BB, a potent mitogen, 5.0 ng/ml (protein, UniProt P01127 82-190, looked up)
Platelet-derived growth …: SLGSLTIAEPAMIAECKTRTEVFEISRRLIDRTNANFLVWPPCVEVQRCSGCCNNRNVQCRPTQVQLRPVQVRKIEIVRKKPIFKKATVTLEDHLACKCETVAAARPVT
modifications: homodimer PDGF-BB
growth of the cells (MTT assay) [4]: enhanced
